≈ marks a conversion by molar mass, not a printed value.
How the values were obtained:
[1] = tested on: L. donovani intracellular amastigotes infecting THP-1 cells; experiment: Intracellular amastigote assay; assay type: cell-based, Leishmania donovani; settings: for inhibition of parasite growth (primary screen): single point 10 μM, L. donovani amastigotes in THP-1; for EC50: read-out: Intracellular Amastigote EC50, Leishmania donovani, THP-1 host, 72 h
[2] = tested on: intracellular parasites of Leishmania donovani; experiment: Antileishmanial potency against visceral leishmaniasis; assay type: cell-based; settings: read-out: EC50 (visceral leishmaniasis)
host macrophage = experiment: Host cell cytotoxicity in the same assay; assay type: cell-based; settings: abstract
[3] = Artificial membrane permeability; assay type: in vitro ADME; settings: pH 7.4
THP-1 cells = experiment: Host THP-1 cell cytotoxicity; assay type: cell-based, human; settings: for cytotoxicity to the host THP-1 cells (GI): primary screen, single point 10 μM; for CC50: read-out: Host (THP-1) cell CC50, UCSF assay
Whole blood stability = assay type: in vitro ADME; settings: criterion: no % reduction over 120 min; racemate
[4] = Kinetic aqueous solubility by CLND; assay type: physicochemical; settings: high-throughput CLND
[5] = tested on: L. donovani intracellular amastigotes infecting THP-1 macrophages; experiment: GSK intramacrophage L. donovani assay; assay type: cell-based, Leishmania donovani; settings: read-out: LD AMMAC EC50; growth inhibition of L. donovani intracellular amastigotes infecting THP-1 macrophages (GSK)
human serum albumin = human serum albumin (Homo sapiens, UniProt P02768); experiment: Human serum albumin; assay type: in vitro ADME; settings: immobilized HSA column
Sequence of human serum albumin (P02768 25-609): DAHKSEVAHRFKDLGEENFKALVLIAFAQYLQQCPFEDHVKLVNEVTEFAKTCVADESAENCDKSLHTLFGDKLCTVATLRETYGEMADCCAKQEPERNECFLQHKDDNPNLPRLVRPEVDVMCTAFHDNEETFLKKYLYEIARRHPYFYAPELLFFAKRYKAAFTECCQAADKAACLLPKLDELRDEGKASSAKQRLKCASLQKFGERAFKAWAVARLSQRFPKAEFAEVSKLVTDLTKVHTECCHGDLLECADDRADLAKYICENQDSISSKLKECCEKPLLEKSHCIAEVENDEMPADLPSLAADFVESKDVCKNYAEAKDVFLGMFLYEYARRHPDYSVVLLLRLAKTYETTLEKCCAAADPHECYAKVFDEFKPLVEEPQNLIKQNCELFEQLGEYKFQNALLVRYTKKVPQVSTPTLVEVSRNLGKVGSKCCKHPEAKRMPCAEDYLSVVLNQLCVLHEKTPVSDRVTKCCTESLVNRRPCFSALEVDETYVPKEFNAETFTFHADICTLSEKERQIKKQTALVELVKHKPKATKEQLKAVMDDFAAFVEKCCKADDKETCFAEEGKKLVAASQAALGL

[6] = assay type: in vitro ADME; settings: microsomes
L. major promastigotes = experiment: Promastigote assay; assay type: cell-based; settings: read-out: Extracellular promastigote EC50; Leishmania major, 72 h
[7] = tested on: L. donovani promastigotes; experiment: Promastigote assay; assay type: cell-based; settings: read-out: Extracellular promastigote EC50; Leishmania donovani, 72 h
host B10R cells = assay type: cell-based
HepG2 cells = experiment: HepG2 cytotoxicity; assay type: cell-based
Property forecast index = assay type: physicochemical; settings: ChromLogD7.4 + Aromatic rings
Plasma protein binding = assay type: in vitro ADME; settings: racemate, rapid equilibrium dialysis
[8] = tested on: L. major intracellular amastigotes; experiment: Intracellular amastigote assay; assay type: cell-based; settings: read-out: Intracellular Amastigote EC50; Leishmania major, THP-1 host, 72 h
[9] = tested on: L. donovani intracellular amastigotes infecting B10R cells; experiment: Intracellular amastigote assay; assay type: cell-based; settings: read-out: L. donovani EC50; intracellular amastigotes infecting B10R cells (UCSD assay), average of two biological replicates
host THP-1 macrophages = experiment: GSK LD MAC host cell toxicity readout of inMac assay; assay type: cell-based; settings: read-out: LD MAC EC50; cytotoxicity against host THP-1 macrophages (GSK)
FaSSIF solubility = assay type: physicochemical; settings: racemate
[10] = tested on: intramacrophage Leishmania; settings: read-out: intramacrophage EC50; cited from earlier work

SMILES | inhibition of parasite growth (primary screen) [1] [%] | AMP [3] [nm/s] | cytotoxicity to the host THP-1 cells (GI) (THP-1 cells) [% GI] | CC50 (THP-1 cells) [nM] | Solubility (CLND) [4] [µM] | EC50 [5] [nM] | EC50 [1] [nM] | HSA Binding (human serum albumin) [%] | EC50 (L. major promastigotes) [nM] | EC50 [7] [nM] | EC50 (HepG2 cells) [nM] | PFI (Property forecast index) | EC50 [8] [nM] | EC50 (host THP-1 macrophages) [nM] | EC50 [10] [nM] | further results
COc1ccc(N2C(=O)c3[nH]nc(CC(C)C)c3C2c2ccc(C)cc2)cc1 (stereo not shown) [CMLD007430] | 0 |  |  |  |  |  |  |  |  |  |  |  |  |  |  | 
C[C@@H]1[C@H](O)[C@@H](C)/C=C/C=C/C=C/C=C/C=C/C=C/C=C/[C@H](O[C@@H]2O[C@H](C)[C@@H](O)[C@H](N)[C@@H]2O)C[C@@H]2O[C@](O)(C[C@@H](O)C[C@@H](O)[C@H](O)CC[C@@H](O)C[C@@H](O)CC(=O)O[C@H]1C)C[C@H](O)[C@H]2C(=O)O [amphotericin B] |  |  |  |  |  |  |  |  |  |  |  |  |  |  |  | EC50 [2]: 200 nM; concentration cytotoxic to the host cell (host macrophage): 5.0 µM
COc1ccc(N2C(=O)c3[nH]nc(CC(C)C)c3C2c2ccc(F)cc2)cc1 (stereo not shown) [Compound 1] | > 99 | 345 | < 13 | > 20000 | 107 (≈ 40.6 µg/mL) | 2500 | 2500 | 96.4 | 4400 | 2000 | 63100 | 8.4 | 1300 | 15800 |  | Whole blood stability (Whole blood stability): Pass; Microsomal stability (mouse) Clint [6]: < 3.4 mL/min/g; Microsomal stability (mouse) t1/2 [6]: > 20 min; CC50 (host B10R cells): > 20000 nM; Plasma protein binding (Plasma protein binding): 97.5%; EC50 [9]: 820 nM; FaSSIF solubility (FaSSIF solubility): 130 µg/mL
O=C(Nc1ccc(F)c(-c2ccn3c(N4CCOCC4)cnc3n2)c1)N1CCCC1 [GSK3494245] |  |  |  |  |  |  |  |  |  |  |  |  |  |  | 1600 | 
C[C@H]1CN(c2n[nH]c3nc(N[C@H]4CC[C@H](NS(=O)(=O)CCC(F)(F)F)CC4)ncc23)CCO1 [GSK3186899] |  |  |  |  |  |  |  |  |  |  |  |  |  |  | 1400 | 
COc1ccc(N2C(=O)c3[nH]nc(CC(C)C)c3C2c2ccccc2)cc1 (stereo not shown) [Compound 2] | > 99 | 370 | < 13 | > 20000 | 90 (≈ 32.5 µg/mL) | 3200 | 3700 | 95.8 | 4200 | 2400 | 79400 | 8.4 | 1700 | 31600 |  | 

Reference: publication PMC9937549 (Frontiers in tropical diseases, 2023)
